According to patent US20020055094A1 (priority 1996, published 2002):

Key:
Type in all cases: binding
[1] = system: NWS/G70C influenza A virus
[2] = system: NWS/G70C influenza A virus; remark: listed apart in the source
[3] = system: influenza A NWS/G70C

Compound: CC(=O)N[C@H]1[C@H]([C@H](OC(=O)NCCCCCCNC(=O)NCCCCCCN)[C@H](O)CO)OC(C(=O)O)=C[C@@H]1NC(=N)N [Compound No. 8, 5-acetamido-7-[6′-(6″-aminohexylureido)-hexyl]-carbamoyloxy-4-guanidino-2,3,4,5-tetradeoxy-D-glycero-D-galacto-non-2-enopyranosonic acid]
- signal in direct detection [1]: no signal at any concentration of virus

Compound: CC(=O)N[C@H]1[C@H]([C@H](OC(=O)NCCCCCCNC(=O)CNC(=O)CNC(=O)CNC(=O)CCCC[C@@H]2SC[C@@H]3NC(=O)N[C@@H]32)[C@H](O)CO)OC(C(=O)O)=C[C@@H]1NC(=N)N [Compound No. 21, 5-acetamido-7-(6′-biotinylamino-tricrlycinamido-hexy) -carbamoyloxy-4-guanidino-2,3,4,5-tetradeoxy-D-glycerQ-D-galacto-non-2-enopyranosonic acid]
- minimum virus detectable [1]: about 10^5 virus particles per well
- compound concentration giving the best result [2]: 0.01 µM
- virus detection limit of captured complex [2]: ≤ 0.625×10^5 pfu

Compound: 5-acetamido-7-{6′-[6″-(6″′-biotinylaminocaproyl) -tri-amingcaroyl]-aminohexyl}-carbamoyloxy-4-guanidino -2,3,4,5-tetradeoxy-D-glycero-D-gaacto-non-2-enopyranosonic acid [Compound No. 26]
- compound concentration giving the best results [3]: 0.1 µM
- virus amount readily detected [3]: 2.5×10^5 pfu/well
